Where “and” joins values, the source holds several entries; their conditions need not be identical. Identical values can stand only once.
What was measured:
Assay type in all cases: cell-based, human
[1] = system: MLL leukemia cells (MV4;11, MOLM13, KOPN8, RS4;11); test: MTT cell viability assay, MLL leukemia cells as a group
Method: (§1) Human leukemia cells K562, MV4;11 and RS4;11 (purchased from ATCC) and KOPN8, MOLM13 (purchased from DSMZ) were cultured in RPMI 1640 (Invitrogen) supplemented with 10% heat inactivated (h.i.) FBS and 1% penicillin/streptomycin (Invitrogen). SET2 cells (purchased from DSMZ) were cultured in RPMI 1640 supplemented with 20% h.i. FBS and 1% penicillin/streptomycin. Cells were plated at 1 × 10^5 to 2 × 10^5 cells/mL depending on cell line and treated with 0.25% DMSO or varying concentrations of compounds and incubated at 37 °C, 5% CO2 incubator for 7 days. Media was changed on day 3 or 4 and compounds were resupplied. […] Cell suspensions (100 μL) were transferred to the 96-well plates for each sample in quadruplicate at the time of media change. At day 7, 10 µL of MTT reagent (M6494, Molecular Probes™) was added to each well of the 96 well plate and incubated at 37 °C for 4 h. The formazan was then solubilized by adding 100 µL acidified 10% SDS solution and incubated at 37 °C overnight. Plates were read for absorbance at 570 nm using a PHERAstar BMG microplate reader. The experiments were performed two times in quadruplicates with calculation of mean and SD for each condition. Data were analyzed in Prism 8.0.0 to obtain GI50 values.
Supplementary Figure 4. Cell viability assay for AS-6 in MLL leukemia cell lines. Titration curves from the MTT cell viability assay performed after 7 days of treatment of human MLL1- […]
replicates. Representative graphs are shown from two independent MTT experiments performed […]
(§2) Supplementary Figure 7. […] (a)
Titration curves from the MTT cell viability assay performed after 4, 7, and 11 (or 10) days of […]
Titration curves from the MTT cell viability assay performed after 7 days of treatment of KOPN8 , MOLM13 and MV4;11 cell lines harboring MLL1 translocation (MLL1-r) or K562 cell line (non- […]
Representative graphs are shown from two independent MTT experiments performed for each cell line. GI50 values correspond to […]

K562 cells = test: MTT cell viability assay
Method: as §1, §2
(§3) Titration curves from the MTT cell viability assay performed after 4, 7, and 11 (or 10) days of
(§4) Titration curves from the MTT cell viability assay performed after 7 days of treatment of KOPN8 ,
(§5) MOLM13 and MV4;11 cell lines harboring MLL1 translocation (MLL1-r) or K562 cell line (non-
(§6) Representative graphs are shown
(§7) from two independent MTT experiments performed for each cell line. GI50 values correspond to […]

KOPN8 cells = test: MTT cell viability assay; conditions: MTT, 7 days
Method: as §1, §2, §3, §4, §5, §6, §7

[2] = system: MLL fusion target genes in MV4;11 cells; test: Real time qRT-PCR gene expression
Method: 0.5 × 10^6 – 3 × 10^6 cells from each sample were collected at days 7 or 8 of treatment, centrifuged at 211 xg, and RNA was extracted according to the RNeasy Mini Kit protocol (74106, Qiagen). Extracted RNA was quantified using Nanodrop 2000 UV-Vis spectrophotometer and 0.5–1 µg of total RNA was reverse transcribed into cDNA using High-Capacity cDNA Reverse Transcription Kit (4368814, Applied Biosystems™) according to the manufacturer’s protocol. Real-time PCR was performed using the CFX96 Touch Real-Time PCR Detection System (Bio-Rad). TaqMan Gene Expression Master Mix and TaqMan Gene Expression Assays were purchased from Applied Biosystems. Relative quantification of each gene transcript was carried out using the comparative Ct method as described in the Applied Biosystems User Bulletin no. 2. TaqMan Gene Expression Assays were used: HPRT1: Hs02800695_m1, DLX2: Hs00269993_m1, FLT3: Hs00174690_m1, HOXA9: Hs00365956_m1, MEF2C: Hs00231149_m1, MEIS1: Hs00180020_m1, MNDA: Hs00935905_m1.
Supplementary Figure 10. Effect of AS-nc on gene expression in MLL leukemia cells. (a, b) Quantitative RT-PCR performed in MOLM13 cells (a) or MV4;11 cells (b) after 7 days of treatment with AS-nc. Gene expression was normalized to HPRT1 and referenced to the DMSO treated cells. Representative data from two independent experiments, each performed in triplicates, […]

MV4;11 cells = test: MTT cell viability assay; conditions: MTT, 7 days
Method: (§8) FBS and 1% penicillin/streptomycin. […] Media was changed on day 3 or 4 and compounds were resupplied. […] Cell suspensions (100 μL) were transferred to the 96-well plates for each sample in quadruplicate at the time of media change. At day 7, 10 µL of MTT reagent (M6494, Molecular Probes™) was added to each well of the 96 well plate and incubated at 37 °C for 4 h. The formazan was then solubilized by adding 100 µL acidified 10% SDS solution and incubated at 37 °C overnight. Plates were read for absorbance at 570 nm using a PHERAstar BMG microplate reader. The experiments were performed two times in quadruplicates with calculation of mean and SD for each condition. Data were analyzed in Prism 8.0.0 to obtain GI50 values.
as §2, §3, §4, §5, §6
(§9) from two independent MTT experiments performed for each cell line.

MOLM13 cells = test: MTT cell viability assay; conditions: MTT, 7 days
Method: as §8, §2, §3, §4, §5, §6, §9

[3] = MTT, 7 days, log[compound] -4.92082
[4] = MTT, 7 days, log[compound] -5.22185
[5] = MTT, 7 days, log[compound] -5.52288
[6] = MTT, 7 days, log[compound] -5.82391
[7] = MTT, 7 days, log[compound] -6.12494
[8] = MTT, 7 days, log[compound] -6.42597
[9] = MV4;11, 7 days, 3 uM, normalized to HPRT1, referenced to DMSO

## CN1CC(C(=O)NCc2ccc3c(-c4cccc(C(N)=S)c4)cn(C4CCN(S(=O)(=O)C(F)(F)F)CC4)c3c2)C1 [AS-99]
[1]; Homo sapiens, MLL leukemia cells
  GI50: 1.8 to 3.6 µM
K562 cells; Homo sapiens, 168 h, K562 (non MLL1-r), MTT, 7 days
  GI50: ~10 µM
K562 cells; [3]
  % activity K562: 34.51% and 35.23% and 31.55% and 35.55%
K562 cells; [4]
  % activity K562: 83.83% and 82.23% and 83.51% and 86.83%
K562 cells; [5]
  % activity K562: 95.95% and 103.51% and 103.55% and 93.67%
K562 cells; [6]
  % activity K562: 96.63% and 103.59% and 103.23% and 96.55%
K562 cells; [7]
  % activity K562: 84.15% and 92.83% and 97.87% and 96.55%
K562 cells; [8]
  % activity K562: 86.31% and 85.15% and 89.55% and 92.55%
K562 cells; MTT, 7 days, log[compound] -6.727
  % activity K562: 85.67% and 82.35% and 87.23% and 83.91%
K562 cells; leukemia cells without MLL1 translocations
  effect on growth/proliferation of K562 cells: no or limited effects at 10 µM or higher concentrations
KOPN8 cells; Homo sapiens, KOPN-8, 168 h, KOPN8 (MLL1-r)
  GI50: 2.9 ± 0.3 µM
KOPN8 cells; log[compound] -4.92082
  % activity KOPN-8: 5.251% and 4.98% (2×) and 5.115%
KOPN8 cells; log[compound] -5.22185
  % activity KOPN-8: 1.863% and 1.728% and 2.134%
KOPN8 cells; log[compound] -5.52288
  % activity KOPN-8: 50.2371% and 54.1667% and 51.0501% and 53.0827%
KOPN8 cells; log[compound] -5.82391
  % activity KOPN-8: 80.5894% and 71.1043% and 76.5244% and 75.7114%
KOPN8 cells; log[compound] -6.12494
  % activity KOPN-8: 90.8875% and 88.855% and 90.6165% and 83.977%
KOPN8 cells; log[compound] -6.42597
  % activity KOPN-8: 97.1206% and 99.8306% and 104.844% and 96.4431%
KOPN8 cells; log[compound] -6.727
  % activity KOPN-8: 96.0366% and 101.457% and 104.844% and 97.6626%
[2]; [9]
  DLX2 expression: 0.19 and 0.27 and 0.29
  FLT3 expression: 0.7 and 0.8 and 0.73
  HOXA9 expression: 0.46 and 0.64 and 0.75
  MEF2C expression: 0.64 and 0.74 and 0.63
  MEIS1 expression: 0.76 and 0.82 and 1.02
  MNDA expression: 1.48 and 1.84 and 1.74
MV4;11 cells; Homo sapiens, 168 h, MV4;11 (MLL1-r)
  GI50: 1.8 ± 0.2 µM
MV4;11 cells; log[compound] -4.92082
  % activity MV4;11: 1.588% and 2.029%
MV4;11 cells; log[compound] -5.22185
  % activity MV4;11: 0.6174% and 0.7056% and 0.9702%
MV4;11 cells; log[compound] -5.52288
  % activity MV4;11: 22.9327% and 24.6086% and 18.5226% and 19.2282%
MV4;11 cells; log[compound] -5.82391
  % activity MV4;11: 65.4465% and 63.065% and 69.151% and 68.269%
MV4;11 cells; log[compound] -6.12494
  % activity MV4;11: 88.9085% and 99.8456% and 101.963% and 98.4344%
MV4;11 cells; log[compound] -6.42597
  % activity MV4;11: 97.7288% and 98.9636% and 100.639% and 102.668%
MOLM13 cells; Homo sapiens, MOLM-13, 168 h, MOLM13 (MLL1-r)
  GI50: 3.6 ± 0.3 µM
MOLM13 cells; log[compound] -4.92082
  % activity MOLM-13: 3.13% and 3.054% and 2.978%
MOLM13 cells; log[compound] -5.22185
  % activity MOLM-13: 1.145% and 1.069% and 1.222%
MOLM13 cells; log[compound] -5.52288
  % activity MOLM-13: 67.0357% and 69.5553% and 72.2275% and 71.6931%
MOLM13 cells; log[compound] -5.82391
  % activity MOLM-13: 99.1792% and 96.2016% and 97.7286% and 103.76%
MOLM13 cells; log[compound] -6.12494
  % activity MOLM-13: 111.472% and 117.274% and 111.243% and 116.205%
MOLM13 cells; log[compound] -6.42597
  % activity MOLM-13: 98.5684% and 93.0712% and 98.6448% and 96.736%

## CN1CC(C(=O)NCc2ccc3c(-c4cccc(C(N)=O)c4)cn(C4CCN(S(=O)(=O)C(F)(F)F)CC4)c3c2)C1 [AS-nc]
[1]; 7 days
  effect on MLL leukemia cells (viability): no or much weaker effects
K562 cells; [3]
  % activity K562: 87.2356% and 88.3293% and 79.0617% and 81.4793%
K562 cells; [4]
  % activity K562: 96.906% and 94.8338% and 87.581% and 99.8993%
K562 cells; [5]
  % activity K562: 91.5527% and 87.8688% and 87.2356% and 88.1566%
K562 cells; [6]
  % activity K562: 106.979% and 101.569% and 98.9783% and 92.4737%
K562 cells; [7]
  % activity K562: 95.2367% and 84.818% and 86.8902% and 88.0414%
K562 cells; [8]
  % activity K562: 88.8473% and 100.475% and 98.4026% and 99.0934%
KOPN8 cells; log[compound] -4.92082
  % activity KOPN-8: 88.0603% and 89.0658% and 78.5086% and 67.1135%
KOPN8 cells; log[compound] -5.22185
  % activity KOPN-8: 96.2715% and 87.8928% and 88.5631% and 98.2824%
KOPN8 cells; log[compound] -5.52288
  % activity KOPN-8: 93.4227% and 96.9418% and 95.7687% and 88.2279%
KOPN8 cells; log[compound] -5.82391
  % activity KOPN-8: 91.9145% and 89.5685% and 90.7415% and 92.2497%
KOPN8 cells; log[compound] -6.12494
  % activity KOPN-8: 92.2497% and 92.4173% and 96.2715% and 88.7306%
KOPN8 cells; log[compound] -6.42597
  % activity KOPN-8: 96.439% and 101.969% and 107.164% and 94.4282%
[2]; AS-nc 3 uM
  MV4;11 fold change vs DMSO, FLT3: 1.06 and 0.99 and 0.95
  MV4;11 fold change vs DMSO, HOXA9: 1.01 and 0.9
  MV4;11 fold change vs DMSO, MEF2C: 1.19 and 1.02 and 0.92
  MV4;11 fold change vs DMSO, MESIS1: 0.86 and 1.07 and 0.96
MV4;11 cells; log[compound] -4.92082
  % activity MV4;11: 33.9271% and 38.4523% and 37.682% and 37.2006%
MV4;11 cells; log[compound] -5.22185
  % activity MV4;11: 75.4242% and 68.4439% and 74.2207% and 76.0501%
MV4;11 cells; log[compound] -5.52288
  % activity MV4;11: 93.14% and 102.624% and 98.3873% and 102.19%
MV4;11 cells; log[compound] -5.82391
  % activity MV4;11: 95.1619% and 88.5666% and 92.2253% and 96.7986%
MV4;11 cells; log[compound] -6.12494
  % activity MV4;11: 101.179% and 95.4026% and 92.466% and 99.4464%
MV4;11 cells; log[compound] -6.42597
  % activity MV4;11: 105.753% and 96.7024% and 99.7834% and 97.7615%
MOLM13 cells; log[compound] -4.92082
  % activity MOLM-13: 79.465% and 80.5109% and 111.082% and 96.078%
MOLM13 cells; log[compound] -5.22185
  % activity MOLM-13: 91.4119% and 88.8777% and 88.5559% and 94.107%
MOLM13 cells; log[compound] -5.52288
  % activity MOLM-13: 100.261% and 95.3942% and 100.744% and 98.5318%
MOLM13 cells; log[compound] -5.82391
  % activity MOLM-13: 98.572% and 96.1183% and 100.945% and 90.7281%
MOLM13 cells; log[compound] -6.12494
  % activity MOLM-13: 105.41% and 99.4972% and 101.227% and 102.474%
MOLM13 cells; log[compound] -6.42597
  % activity MOLM-13: 103.801% and 99.1352% and 97.8479% and 99.2156%
